Assay results published in ChEMBL document CHEMBL4334548, “Discovery of Isoxazole Amides as Potent and Selective SMYD3 Inhibitors” (ACS Med Chem Lett, 2020).
≈ marks a conversion by molar mass, not a printed value.

What was measured:
[1] = Permeability of compound; assay type: ADME; settings: not told; read-out: permeability
[2] = Solubility of compound by CLND method; assay type: physicochemical
[3] = Clearance in Sprague-Dawley rat at 1 mg/kg, iv or 2 mg/kg, po; assay type: ADME, organism-based; settings: in vivo
[4] = AUC in Sprague-Dawley rat at 2 mg/kg, po; assay type: ADME, organism-based; settings: in vivo
[5] = Half life in Sprague-Dawley rat at 1 mg/kg, iv or 2 mg/kg, po; assay type: ADME, organism-based; settings: in vivo
[6] = Oral bioavailability in Sprague-Dawley rat at 2 mg/kg; assay type: ADME, organism-based; settings: in vivo; for bioavailability: Sprague-Dawley
[7] = Volume of distribution in Sprague-Dawley rat at 1 mg/kg, iv or 2 mg/kg, po; assay type: ADME, organism-based; settings: in vivo
[8] = Volume of distribution in Sprague-Dawley rat at 0.5 mg/kg, iv or 2 mg/kg, po; assay type: ADME, organism-based; settings: in vivo
[9] = Half life in Sprague-Dawley rat at 0.5 mg/kg, iv or 2 mg/kg, po; assay type: ADME, organism-based; settings: in vivo
[10] = Clearance in Sprague-Dawley rat at 0.5 mg/kg, iv or 2 mg/kg, po; assay type: ADME, organism-based; settings: in vivo
[11] = Volume of distribution in Sprague-Dawley rat at 1 mg/kg, iv or 5 mg/kg, po; assay type: ADME, organism-based; settings: in vivo
[12] = Half life in Sprague-Dawley rat at 1 mg/kg, iv or 5 mg/kg, po; assay type: ADME, organism-based; settings: in vivo
[13] = AUC in Sprague-Dawley rat at 5 mg/kg, po; assay type: ADME, organism-based; settings: in vivo
[14] = Oral bioavailability in Sprague-Dawley rat at 5 mg/kg; assay type: ADME, organism-based; settings: in vivo

Row | Papp [1] [×10⁻⁶ cm/s] | solubility kinetic [2] [µM] | Compound | also measured
1 | 20 | 130 (≈ 56.2 µg/mL) | CN(C)Cc1ccc(S(=O)(=O)N2CCC(NC(=O)c3cc(C4CC4)on3)CC2)cc1 | –
2 | < 1 | 420 (≈ 167 µg/mL) | N[C@H]1CC[C@@H](S(=O)(=O)N2CCC(NC(=O)c3cc(C4CC4)on3)CC2)CC1 | –
3 | 14 | 367 (≈ 176 µg/mL) | CC(C)(C)CN[C@H]1CC[C@H](CS(=O)(=O)N2CCC(NC(=O)c3cc(C4CC4)on3)CC2)CC1 | –
4 | 7.9 | 26 (≈ 12.3 µg/mL) | O=C(NC1CCN(S(=O)(=O)c2ccc(CN3CCCCC3)cc2)CC1)c1cc(C2CC2)on1 | –
5 | 5.5 | 194 (≈ 97.3 µg/mL) | O=C(NC1CCN(S(=O)(=O)C[C@H]2CC[C@H](NCc3cccnc3)CC2)CC1)c1cc(C2CC2)on1 | –
6 | – | 14 (≈ 7.49 µg/mL) | CN(CCCC(F)(F)F)[C@H]1CC[C@H](CS(=O)(=O)N2CCC(NC(=O)c3cc(C4CC4)on3)CC2)CC1 | –
7 | 6.4 | 52 (≈ 26.1 µg/mL) | O=C(NC1CCN(S(=O)(=O)C[C@H]2CC[C@H](NCc3ccccn3)CC2)CC1)c1cc(C2CC2)on1 | –
8 | 24 | 306 (≈ 100 µg/mL) | CCS(=O)(=O)N1CCC(NC(=O)c2cc(C3CC3)on2)CC1 | –
9 | 19 | 141 (≈ 73.3 µg/mL) | O=C(NC1CCN(S(=O)(=O)C[C@H]2CC[C@H](NCc3ccc(F)cn3)CC2)CC1)c1cc(C2CC2)on1 | clearance [3]: 17 mL/min/kg; AUC ([4]; Sprague-Dawley, read-out: AUC): 578 ng·h/mL; half-life [5]: 10.8 h; bioavailability [6]: 59%; Vd [7]: 12 L/kg
10 | < 1 | 126 (≈ 55.3 µg/mL) | CN(C)[C@H]1CC[C@H](CS(=O)(=O)N2CCC(NC(=O)c3cc(C4CC4)on3)CC2)CC1 | –
11 | 14 | 9 (≈ 4.69 µg/mL) | O=C(NC1CCN(S(=O)(=O)C[C@H]2CC[C@H](NCCCC(F)(F)F)CC2)CC1)c1cc(C2CC2)on1 | Vd [8]: 18.9 L/kg; half-life [9]: 12.8 h; AUC ([4]; Sprague-Dawley, read-out: AUC): 676 ng·h/mL; bioavailability [6]: 79%; clearance [10]: 20 mL/min/kg
12 | 12 | 55 (≈ 17.2 µg/mL) | CS(=O)(=O)N1CCC(NC(=O)c2cc(C3CC3)on2)CC1 | Vd [11]: 1.2 L/kg; half-life [12]: 2.5 h; AUC [13]: 2142 ng·h/mL; F [14]: 79%
13 | 18 | 4 (≈ 2.14 µg/mL) | O=C(NC1CCN(S(=O)(=O)C[C@H]2CC[C@H](NCc3cccc(Cl)c3)CC2)CC1)c1cc(C2CC2)on1 | –
14 | – | 1 (≈ 0.501 µg/mL) | O=C(NC1CCN(S(=O)(=O)C[C@H]2CC[C@H](NCc3ccccc3)CC2)CC1)c1cc(C2CC2)on1 | Vd [8]: 16.1 L/kg; half-life [9]: 3.6 h; AUC ([4]; Sprague-Dawley, read-out: AUC): 149 ng·h/mL; bioavailability [6]: 79%; clearance [10]: 90 mL/min/kg
15 | < 1 | 375 (≈ 128 µg/mL) | NCCS(=O)(=O)N1CCC(NC(=O)c2cc(C3CC3)on2)CC1 | –
16 | 6.6 | – | O=C(NC1CCN(S(=O)(=O)C[C@H]2CC[C@H](NCc3cc(F)ccn3)CC2)CC1)c1cc(C2CC2)on1 | –
17 | 20 | 277 (≈ 144 µg/mL) | O=C(NC1CCN(S(=O)(=O)C[C@H]2CC[C@H](NCc3cccc(F)c3)CC2)CC1)c1cc(C2CC2)on1 | –
18 | 3.5 | 143 (≈ 64.7 µg/mL) | CCCN[C@H]1CC[C@H](CS(=O)(=O)N2CCC(NC(=O)c3cc(C4CC4)on3)CC2)CC1 | –
19 | – | – | O=C(NC1CCN(S(=O)(=O)[C@H]2CC[C@H](NCCCC(F)(F)F)CC2)CC1)c1cc(C2CC2)on1 | clearance [3]: 20 mL/min/kg; AUC ([4]; Sprague-Dawley, read-out: AUC): 967 ng·h/mL; half-life [5]: 8.6 h; bioavailability [6]: 86%; Vd [7]: 12.5 L/kg
20 | 16 | 302 (≈ 134 µg/mL) | O=C(NC1CCN(S(=O)(=O)c2ccc(CN3CCC3)cc2)CC1)c1cc(C2CC2)on1 | –
21 | 32 | 297 (≈ 154 µg/mL) | O=C(NC1CCN(S(=O)(=O)C[C@H]2CC[C@H](NCc3ccccc3F)CC2)CC1)c1cc(C2CC2)on1 | AUC [4]: 87 ng·h/mL; half-life [5]: 1.7 h; F [6]: 65%; Vd [7]: 9.4 L/kg
22 | < 1 | 297 (≈ 122 µg/mL) | N[C@H]1CC[C@H](CS(=O)(=O)N2CCC(NC(=O)c3cc(C4CC4)on3)CC2)CC1 | –
23 | 4.5 | 26 (≈ 13 µg/mL) | O=C(NC1CCN(S(=O)(=O)C[C@H]2CC[C@H](NCc3ccncc3)CC2)CC1)c1cc(C2CC2)on1 | –
24 | 14 | 10 (≈ 5.15 µg/mL) | Cc1ccc(CN[C@H]2CC[C@H](CS(=O)(=O)N3CCC(NC(=O)c4cc(C5CC5)on4)CC3)CC2)cc1 | –
25 | – | 15 (≈ 7.72 µg/mL) | Cc1ccccc1CN[C@H]1CC[C@H](CS(=O)(=O)N2CCC(NC(=O)c3cc(C4CC4)on3)CC2)CC1 | –

Row | Papp [1] [×10⁻⁶ cm/s] | solubility kinetic [2] [µM] | Compound | also measured
26 | 0.69 | 515 (≈ 197 µg/mL) | O=C(NC1CCN(S(=O)(=O)C2CCNCC2)CC1)c1cc(C2CC2)on1 | Vd [8]: 4.5 L/kg; half-life [9]: 2.7 h; AUC ([4]; Sprague-Dawley, read-out: AUC): 123 ng·h/mL; bioavailability [6]: 27%; clearance [10]: 37 mL/min/kg
27 | 13 | 122 (≈ 55.9 µg/mL) | O=C(NC1CCN(S(=O)(=O)c2ccc(CN3CCCC3)cc2)CC1)c1cc(C2CC2)on1 | Vd [8]: 6.7 L/kg; half-life [9]: 1.7 h; AUC ([4]; Sprague-Dawley, read-out: AUC): 295 ng·h/mL; clearance [10]: 68 mL/min/kg
28 | 5.2 | 502 (≈ 206 µg/mL) | CCN1CCC(S(=O)(=O)N2CCC(NC(=O)c3cc(C4CC4)on3)CC2)CC1 | –
29 | < 0.3 | 295 (≈ 129 µg/mL) | CCN[C@H]1CC[C@H](CS(=O)(=O)N2CCC(NC(=O)c3cc(C4CC4)on3)CC2)CC1 | –
30 | < 1 | 385 (≈ 143 µg/mL) | NCCCCS(=O)(=O)N1CCC(NC(=O)c2cc(C3CC3)on2)CC1 | –
31 | 22 | 14 (≈ 7.51 µg/mL) | O=C(NC1CCN(S(=O)(=O)C[C@H]2CC[C@H](NCc3ccc(Cl)cn3)CC2)CC1)c1cc(C2CC2)on1 | –
32 | 11 | 12 (≈ 6.24 µg/mL) | O=C(NC1CCN(S(=O)(=O)C[C@H]2CC[C@H](NCc3cncc(F)c3)CC2)CC1)c1cc(C2CC2)on1 | –
33 | 2.4 | 406 (≈ 150 µg/mL) | O=C(NC1CCN(S(=O)(=O)C2CCNC2)CC1)c1cc(C2CC2)on1 (stereo unspecified) | –
34 | 5.6 | 474 (≈ 188 µg/mL) | CN1CCC(S(=O)(=O)N2CCC(NC(=O)c3cc(C4CC4)on3)CC2)CC1 | –
35 | 44 | 6 (≈ 3.21 µg/mL) | O=C(NC1CCN(S(=O)(=O)C[C@H]2CC[C@H](NCc3ccc(Cl)cc3)CC2)CC1)c1cc(C2CC2)on1 | clearance [3]: 36 mL/min/kg; AUC ([4]; Sprague-Dawley, read-out: AUC): 365 ng·h/mL; half-life [5]: 7.3 h; bioavailability [6]: 70%; Vd [7]: 14.7 L/kg
36 | 41 | 53 (≈ 29.1 µg/mL) | CCN(CCCC(F)(F)F)[C@H]1CC[C@H](CS(=O)(=O)N2CCC(NC(=O)c3cc(C4CC4)on3)CC2)CC1 | –
37 | 6.1 | 434 (≈ 203 µg/mL) | CC(C)CN[C@H]1CC[C@H](CS(=O)(=O)N2CCC(NC(=O)c3cc(C4CC4)on3)CC2)CC1 | –
38 | 6.8 | 234 (≈ 109 µg/mL) | CCCCN[C@H]1CC[C@H](CS(=O)(=O)N2CCC(NC(=O)c3cc(C4CC4)on3)CC2)CC1 | –
39 | < 1 | 329 (≈ 130 µg/mL) | N[C@H]1CC[C@H](S(=O)(=O)N2CCC(NC(=O)c3cc(C4CC4)on3)CC2)CC1 | –
40 | 20 | 6 (≈ 3.21 µg/mL) | O=C(NC1CCN(S(=O)(=O)C[C@H]2CC[C@H](NCc3ccccc3Cl)CC2)CC1)c1cc(C2CC2)on1 | –
41 | 5.2 | 295 (≈ 119 µg/mL) | NCc1ccc(S(=O)(=O)N2CCC(NC(=O)c3cc(C4CC4)on3)CC2)cc1 | Vd [8]: 2.3 L/kg; half-life [9]: 0.2 h; clearance [10]: 311 mL/min/kg
42 | 17 | 21 (≈ 10.8 µg/mL) | Cc1cccc(CN[C@H]2CC[C@H](CS(=O)(=O)N3CCC(NC(=O)c4cc(C5CC5)on4)CC3)CC2)c1 | –
43 | 18 | 10 (≈ 4.95 µg/mL) | CC(C)(C)CCN[C@H]1CC[C@H](CS(=O)(=O)N2CCC(NC(=O)c3cc(C4CC4)on3)CC2)CC1 | –
44 | 16 | 48 (≈ 24.3 µg/mL) | O=C(NC1CCN(S(=O)(=O)C[C@H]2CC[C@H](NCCC(F)(F)F)CC2)CC1)c1cc(C2CC2)on1 | –
45 | < 1 | 479 (≈ 197 µg/mL) | NC[C@H]1CC[C@H](S(=O)(=O)N2CCC(NC(=O)c3cc(C4CC4)on3)CC2)CC1 | –
46 | 8.9 | 61 (≈ 31.5 µg/mL) | Cc1ccc(CN[C@H]2CC[C@H](CS(=O)(=O)N3CCC(NC(=O)c4cc(C5CC5)on4)CC3)CC2)nc1 | –
47 | < 1 | 297 (≈ 126 µg/mL) | CN[C@H]1CC[C@H](CS(=O)(=O)N2CCC(NC(=O)c3cc(C4CC4)on3)CC2)CC1 | –
48 | 5 | 410 (≈ 168 µg/mL) | O=C(NC1CCN(S(=O)(=O)CCCN2CCCC2)CC1)c1cc(C2CC2)on1 | –
49 | – | 3 (≈ 1.56 µg/mL) | O=C(NC1CCN(S(=O)(=O)C[C@H]2CC[C@H](NCc3ccc(F)cc3)CC2)CC1)c1cc(C2CC2)on1 | –
